This is an account of results in patent publication EP0082498A2, “Beta-lactam compounds and process for the preparation thereof” (SAGAMI CHEMICAL RESEARCH CENTER, priority 1981, dated 1983).

Holding throughout (assay): Antibacterial activity, minimum inhibition concentration (MIC)
What all share (assay type): cell-based

Test [1] concerns Salmonella typhimrium 901. The procedure:
(§1) Antibacterial activities of the compounds according to this invention, which had been prepared in the preceding Examples, were measured according to the method prescribed by The Committee of Amendment of "The method for measurement of the minimum inhibition concentration", The Chemotherapy Association, Japan (See Chemotherapy, Vol. 29, No. 1, pp. 76 ~ 79 (1981)).
(§2) The test results are shown in terms of the minimum inhibition concentration (MIC) (unit: µg/mℓ) in the following Tables 1 to 4.

In test [2] the test system is Staphylococcus aureus MS 353. To be noted: for MIC: Staphylococcus aureus. The procedure: as §1, §2
Test [3] has as its system Proteus morganii IFO 3848. Particulars: for MIC: Morganella morganii. The procedure:
as §1, §2

The subject of test [4] is Salmonella typhimurium IID-971. To be noted: Salmonella enterica, Table 1; Salmonella typhimurium IID-971; read-out: minimum inhibition concentration (MIC). The procedure:
as §1, §2

Where [5] appears, read: Table 4, Salmonella typhimrium 901, read-out: minimum inhibition concentration (MIC).
[6] abbreviates: MS353, Table 4, Staphylococcus aureus MS 353, read-out: minimum inhibition concentration (MIC).
[7] abbreviates: IFO3848, Table 4, Proteus morganii IFO 3848, read-out: minimum inhibition concentration (MIC).

Converted amounts (≈) assume the structure as drawn. Read-outs that look alike come from different tables or passages of the source. A value given as a limit tells only on which side of the number the result lay.

As to `NC(=O)Cn1nnnc1SCC1=C(C(=O)O)N2C(=O)C(NC(=O)C(=CCl)c3csc(N)n3)C2SC1` (single isomer, unassigned) [Example 29, sodium 7-[2-chloromethylene-2-(2-aminothiazol-4-yl)acetamido]-3-(1-carbamoylmethyl-1,2,3,4-tetrazol-5-yl)thiomethyl-3-cephem-4-carboxylate], the MIC in test [1] (setting [5]) amounted to 0.1 µg/mL; in test [2] (setting [6]), 0.78 µg/mL.

Consider `COC(=O)Cn1nnnc1SCC1=C(C(=O)O)N2C(=O)C(NC(=O)C(=CCl)c3csc(N)n3)C2SC1` (single isomer, unassigned) [Example 30, disodium 7-[2-chloromethylene-2-(2-aminothiazol-4-yl)acetamido]-3-(l-methoxycarbonylmethyl-1,2,3,4-tetrazol-5-yl)thiomethyl-3-cephem-4-carboxylate], for which the values for the MIC in test [1] (setting [5]) and in test [2] (setting [6]) were 0.2 µg/mL and 0.78 µg/mL, respectively.

In the case of `CC1(C)S[C@@H]2C(NC(=O)C(=CCl)c3csc(N)n3)C(=O)N2[C@H]1C(=O)[O-].[Na+]` (single isomer, unassigned) [Example 38, Sodium 6-[2-chloromethylene-2-(2-aminothiazol-4-yl)acetamido]penicillanate], the MIC in test [3] (IFO3848, read-out: minimum inhibition concentration (MIC)) was 0.05 µg/mL; in test [1] (Salmonella, 901, read-out: minimum inhibition concentration (MIC)), 3.12 µg/mL; in test [2] (MS353, read-out: minimum inhibition concentration (MIC)) it was 0.2 µg/mL.

On to “sodium 7-[2-chloromethylene-2-(2-aminothiazol-4-yl)-acetamido]-3-(2-hydroxycarbonylmethylthio-1,3,4-thiadia- zol-5-yl)thiomethyl-3-cephem-4-carboxylate [Example 35]”, for which the “minimum inhibition concentration (MIC)” value was at most 0.00625 µg/mL in test [3] (Table 4, Proteus morganii IFO 3848); 0.78 µg/mL in test [1] (Table 4, Salmonella typhimrium 901); 0.78 µg/mL in test [2] (Table 4, Staphylococcus aureus MS 353).

As to `Nc1nc(C(=CI)C(=O)NC2C(=O)N3C(C(=O)O)=C(CSc4nncs4)CS[C@H]23)cs1` (single isomer, unassigned) [Example 37, 7-[2-Iodomethylene-2-(2-aminothiazol-4-yl)acetamido]-3-(1,3,4-thiadiazol-2-yl)thiomethyl-3-cephem-4-carboxylic acid], the results for the MIC in test [3] (setting [7]), in test [1] (setting [5]) and in test [2] (setting [6]) were at most 0.00313 µg/mL, 0.39 µg/mL (≈ 0.641 µM) and 0.2 µg/mL (≈ 0.329 µM), respectively.

For `Nc1nc(C(=CCl)C(=O)NC2C(=O)N3C(C(=O)O)=C(CSc4nnnn4CCO)CSC23)cs1` (single isomer, unassigned) [Example 31], the figures for the MIC in test [3] (setting [7]), in test [1] (setting [5]) and in test [2] (setting [6]) were at most 0.00625 µg/mL, 0.39 µg/mL (≈ 0.716 µM) and 0.78 µg/mL (≈ 1.43 µM), respectively.

`Nc1nc(C(=CCl)C(=O)NC2C(=O)N3C(C(=O)O)=C(CSc4cnn[nH]4)CSC23)cs1` (single isomer, unassigned) [Example 34, sodium7-[2-chloramethylene-2-(2-aminothiazol-4-yl)acetamido]-3-(l,2,3-triazol-5-yl)thiomethyl-3-cephem-4-carboxylate]: the results for the MIC in test [3] (setting [7]), in test [1] (setting [5]) and in test [2] (setting [6]) were 0.0125 µg/mL, 0.78 µg/mL and 0.78 µg/mL, respectively.

Take `Nc1nc(C(=CCl)C(=O)NC2C(=O)N3C(C(=O)O)=C(CSc4cnns4)CSC23)cs1` (single isomer, unassigned) [Example 33, sodium 7-[2-chloromethylene-2-(2-aminothiazol-4-yl)acetamido]-3-(1,2,3-thiadiazol-5-yl)thiomethyl-3-cephem-4-carboxylate]: the MIC in test [3] (setting [7]) is at most 0.00625 µg/mL; in test [1] (setting [5]) it was 0.2 µg/mL; in test [2] (setting [6]) it was 0.1 µg/mL.

As to `Cn1nc(O)c(=O)nc1SCC1=C(C(=O)O)N2C(=O)C(NC(=O)C(=CCl)c3csc(N)n3)C2SC1` (single isomer, unassigned) [Example 4, disodium 7-[2-chloromethylene-2-(2-aminothiazol-4-yl)acetamido]-3-(2,5-dihydro-6-hydroxy-2-methyl-5-oxo-as-triazin-3-yl)thiomethyl-3-cephem-4-carboxylate], the MIC in test [3] (IFO3848, Table 1, Proteus morganii IFO 3848, read-out: minimum inhibition concentration (MIC)) is at most 0.006 µg/mL; in test [4], at most 0.006 µg/mL; in test [2] (MS353, Table 1, Staphylococcus aureus MS 353, read-out: minimum inhibition concentration (MIC)) it was 0.78 µg/mL.
